Measured values: BigSolDB 2.1

CC(C)C[C@H](CN)CC(=O)O
solubility (mole fraction)
Conditions	in acetonitrile	in ethanol	in ethyl acetate	in isobutanol	in isopropanol	in methanol	in n-butanol	in n-propanol
278.15 K	0.000572	0.00115	0.00164	0.00126	9.1e-05	0.00112	0.00093	0.00109
283.15 K	0.000624	0.00149	0.00195	0.00136	0.000125	0.00153	0.00152	0.00144
288.15 K	0.000695	0.00188	0.00237	0.00146	0.000163	0.00198	0.00213	0.00185
293.15 K	0.00076	0.00235	0.00271	0.00159	0.000214	0.00242	0.00282	0.00241
298.15 K	0.000821	0.00272	0.00331	0.00173	0.000253	0.00273	0.00354	0.00277
303.15 K	0.000885	0.00321	0.00374	0.00184	0.000281	0.0033	0.00416	0.0032
308.15 K	0.000931	0.00369	0.00429	0.00194	0.000314	0.00399	0.00487	0.00368
313.15 K	0.000988	0.00424	0.00488	0.002	0.000362	0.00465	0.00551	0.00412
318.15 K	0.00106	0.00501	0.00547	0.00209	0.000419	0.00542	0.00619	0.00466
323.15 K	0.00113	0.00575	0.00589	0.00219	0.000461	0.00602	0.00677	0.00501
328.15 K	0.00118	0.00634	0.00631	0.00226	0.000513	0.00671	0.00731	0.00542
333.15 K	0.00123	0.00711	0.00674	0.00234	0.000585	0.00753	0.00793	0.00603
